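Values below derive from 48-hour exposures of cells grown in 96-well plates, with endpoints linearly interpolated between the two concentrations bracketing the appropriate inhibition level. GI50 is the concentration that inhibits growth by half. TGI: concentration producing complete growth inhibition.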
Tests used:
Experiment in all cases: DTP human tumour cell line panel, 48 h
K-562 leukemia = system: K-562 leukemia
HCT-15 colon = system: HCT-15 colon
M14 melanoma = system: M14 melanoma
SK-MEL-2 melanoma = system: SK-MEL-2 melanoma
KM12 colon = system: KM12 colon
ACHN renal = system: ACHN renal
SNB-75 CNS = system: SNB-75 CNS
RXF 393 renal = system: RXF 393 renal
NCI-H226 lung = system: NCI-H226 lung
IGROV1 ovarian = system: IGROV1 ovarian
KM20L2 colon = system: KM20L2 colon
HOP-62 NSCLC = system: HOP-62 NSCLC
COLO 205 colon = system: COLO 205 colon
HL-60(TB) leukemia = system: HL-60(TB) leukemia
SK-MEL-5 melanoma = system: SK-MEL-5 melanoma
HOP-18 NSCLC = system: HOP-18 NSCLC
LOX IMVI melanoma = system: LOX IMVI melanoma
A549 NSCLC = system: A549 NSCLC
UACC-257 melanoma = system: UACC-257 melanoma
HT29 colon = system: HT29 colon
DLD-1 colon = system: DLD-1 colon
NCI-H522 lung = system: NCI-H522 lung
SF-539 CNS = system: SF-539 CNS
HCC-2998 colon = system: HCC-2998 colon
EKVX NSCLC = system: EKVX NSCLC
SW-620 colon = system: SW-620 colon
SF-295 CNS = system: SF-295 CNS
A498 renal = system: A498 renal
SK-MEL-28 melanoma = system: SK-MEL-28 melanoma
U251 CNS = system: U251 CNS
UACC-62 melanoma = system: UACC-62 melanoma
UO-31 renal = system: UO-31 renal
OVCAR-3 ovarian = system: OVCAR-3 ovarian
SN12C renal = system: SN12C renal
HOP-92 NSCLC = system: HOP-92 NSCLC
TK-10 renal = system: TK-10 renal
NCI-H23 lung = system: NCI-H23 lung
MALME-3M melanoma = system: MALME-3M melanoma
HCT-116 colon = system: HCT-116 colon
RPMI-8226 leukemia = system: RPMI-8226 leukemia
MOLT-4 leukemia = system: MOLT-4 leukemia
NCI-H460 lung = system: NCI-H460 lung
SR leukemia = system: SR leukemia
SNB-19 CNS = system: SNB-19 CNS
OVCAR-8 ovarian = system: OVCAR-8 ovarian
786-0 renal = system: 786-0 renal
SF-268 CNS = system: SF-268 CNS
OVCAR-5 ovarian = system: OVCAR-5 ovarian
LXFL 529 NSCLC = system: LXFL 529 NSCLC
SK-OV-3 ovarian = system: SK-OV-3 ovarian
CCRF-CEM leukemia = system: CCRF-CEM leukemia
MCF7 breast = system: MCF7 breast
CAKI-1 renal = system: CAKI-1 renal
DU-145 prostate = system: DU-145 prostate
MDA-N = system: MDA-N
BT-549 breast = system: BT-549 breast
NCI/ADR-RES ovarian = system: NCI/ADR-RES ovarian
MDA-MB-231 breast = system: MDA-MB-231 breast
T-47D breast = system: T-47D breast
PC-3 prostate = system: PC-3 prostate
HS 578T breast = system: HS 578T breast
OVCAR-4 ovarian = system: OVCAR-4 ovarian
MDA-MB-435 = system: MDA-MB-435

## N.N.NCCCCCN.O=C([O-])CC(=O)[O-].O=C([O-])CC(=O)[O-].[Pt+4].[Pt+4]
K-562 leukemia
  GI50: > 100 µM
  TGI: > 100 µM
HCT-15 colon
  GI50: > 100 µM
  TGI: > 100 µM
M14 melanoma
  GI50: > 100 µM
  TGI: > 100 µM
SK-MEL-2 melanoma
  GI50: > 100 µM
  TGI: > 100 µM
KM12 colon
  GI50: > 100 µM
  TGI: > 100 µM
ACHN renal
  GI50: 66.6 µM
  TGI: > 100 µM
SNB-75 CNS
  GI50: > 100 µM
  TGI: > 100 µM
RXF 393 renal
  GI50: > 100 µM
  TGI: > 100 µM
NCI-H226 lung
  GI50: > 100 µM
  TGI: > 100 µM
IGROV1 ovarian
  GI50: > 100 µM
  TGI: > 100 µM
KM20L2 colon
  GI50: > 100 µM
  TGI: > 100 µM
HOP-62 NSCLC
  GI50: 43 µM
  TGI: > 100 µM
COLO 205 colon
  GI50: > 100 µM
  TGI: > 100 µM
HL-60(TB) leukemia
  GI50: 39.6 µM
  TGI: > 100 µM
SK-MEL-5 melanoma
  GI50: > 100 µM
  TGI: > 100 µM
HOP-18 NSCLC
  GI50: > 100 µM
  TGI: > 100 µM
LOX IMVI melanoma
  GI50: > 100 µM
  TGI: > 100 µM
A549 NSCLC
  GI50: > 100 µM
  TGI: > 100 µM
UACC-257 melanoma
  GI50: > 100 µM
  TGI: > 100 µM
HT29 colon
  GI50: > 100 µM
  TGI: > 100 µM
DLD-1 colon
  GI50: > 100 µM
  TGI: > 100 µM
NCI-H522 lung
  GI50: > 100 µM
  TGI: > 100 µM
SF-539 CNS
  GI50: 77.4 µM
  TGI: > 100 µM
HCC-2998 colon
  GI50: > 100 µM
  TGI: > 100 µM
EKVX NSCLC
  GI50: > 100 µM
  TGI: > 100 µM
SW-620 colon
  GI50: > 100 µM
  TGI: > 100 µM
SF-295 CNS
  GI50: 73.1 µM
  TGI: > 100 µM
A498 renal
  GI50: > 100 µM
  TGI: > 100 µM
SK-MEL-28 melanoma
  GI50: > 100 µM
  TGI: > 100 µM
U251 CNS
  GI50: > 100 µM
  TGI: > 100 µM
UACC-62 melanoma
  GI50: 18.7 µM
  TGI: > 100 µM
UO-31 renal
  GI50: > 100 µM
  TGI: > 100 µM
OVCAR-3 ovarian
  GI50: > 100 µM
  TGI: > 100 µM
SN12C renal
  GI50: 45.6 µM
  TGI: > 100 µM
HOP-92 NSCLC
  GI50: > 100 µM
  TGI: > 100 µM
TK-10 renal
  GI50: > 100 µM
  TGI: > 100 µM
NCI-H23 lung
  GI50: 98.3 µM
  TGI: > 100 µM
MALME-3M melanoma
  GI50: > 100 µM
  TGI: > 100 µM
HCT-116 colon
  GI50: > 100 µM
  TGI: > 100 µM
RPMI-8226 leukemia
  GI50: > 100 µM
  TGI: > 100 µM
MOLT-4 leukemia
  GI50: 65.5 µM
  TGI: > 100 µM
NCI-H460 lung
  GI50: 17.4 µM
  TGI: > 100 µM
SR leukemia
  GI50: 58.6 µM
  TGI: > 100 µM
SNB-19 CNS
  GI50: > 100 µM
  TGI: > 100 µM
OVCAR-8 ovarian
  GI50: > 100 µM
  TGI: > 100 µM
786-0 renal
  GI50: > 100 µM
  TGI: > 100 µM
SF-268 CNS
  GI50: 71.4 µM
  TGI: > 100 µM
OVCAR-5 ovarian
  GI50: > 100 µM
  TGI: > 100 µM
LXFL 529 NSCLC
  GI50: > 100 µM
  TGI: > 100 µM
SK-OV-3 ovarian
  GI50: > 100 µM
  TGI: > 100 µM
CCRF-CEM leukemia
  GI50: 34 µM
  TGI: > 100 µM

## CC1(C)CC[C@]2(C(=O)O)CC[C@]3(C)C(=CC[C@@H]4[C@@]5(C)CC[C@H](OC6OC(CO)C(O)C(O)C6O)C(C)(C)[C@@H]5CC[C@]43C)[C@@H]2C1 (stereo partly drawn)
MCF7 breast
  TGI: 3.91 µM
K-562 leukemia
  TGI: 3.67 µM
HCT-15 colon
  TGI: 10.7 µM
CAKI-1 renal
  TGI: 5.93 µM
DU-145 prostate
  TGI: 4.49 µM
M14 melanoma
  TGI: 3.12 µM
SK-MEL-2 melanoma
  TGI: 3.15 µM
KM12 colon
  TGI: 2.86 µM
ACHN renal
  TGI: 3.04 µM
SNB-75 CNS
  TGI: 5.33 µM
MDA-N
  TGI: 3.54 µM
RXF 393 renal
  TGI: 3.77 µM
NCI-H226 lung
  TGI: 3.4 µM
IGROV1 ovarian
  TGI: 3.06 µM
HOP-62 NSCLC
  TGI: 3.14 µM
COLO 205 colon
  TGI: 3.21 µM
BT-549 breast
  TGI: 2.59 µM
NCI/ADR-RES ovarian
  TGI: 22.9 µM
HL-60(TB) leukemia
  TGI: 3.83 µM
SK-MEL-5 melanoma
  TGI: 3.54 µM
LOX IMVI melanoma
  TGI: 3.23 µM
A549 NSCLC
  TGI: 3.08 µM
UACC-257 melanoma
  TGI: 3.13 µM
HT29 colon
  TGI: 2.98 µM
MDA-MB-231 breast
  TGI: 3.07 µM
NCI-H522 lung
  TGI: 2.91 µM
HCC-2998 colon
  TGI: 3.18 µM
SW-620 colon
  TGI: 3.51 µM
T-47D breast
  TGI: 3.55 µM
PC-3 prostate
  TGI: 2.96 µM
HS 578T breast
  TGI: 4.74 µM
SF-295 CNS
  TGI: 3.2 µM
A498 renal
  TGI: 3.82 µM
SK-MEL-28 melanoma
  TGI: 3.69 µM
U251 CNS
  TGI: 3.05 µM
UACC-62 melanoma
  TGI: 3.28 µM
UO-31 renal
  TGI: 3.1 µM
OVCAR-3 ovarian
  TGI: 3.01 µM
SN12C renal
  TGI: 3.07 µM
HOP-92 NSCLC
  TGI: 3.06 µM
NCI-H23 lung
  TGI: 3.52 µM
MALME-3M melanoma
  TGI: 3.16 µM
HCT-116 colon
  TGI: 3.13 µM
RPMI-8226 leukemia
  TGI: 6.08 µM
MOLT-4 leukemia
  TGI: 4.55 µM
NCI-H460 lung
  TGI: 14.3 µM
OVCAR-4 ovarian
  TGI: 3 µM
SR leukemia
  TGI: 5.53 µM
SNB-19 CNS
  TGI: 2.89 µM
OVCAR-8 ovarian
  TGI: 3.12 µM
786-0 renal
  TGI: 3.23 µM
SF-268 CNS
  TGI: 3.51 µM
MDA-MB-435
  TGI: 3.39 µM
OVCAR-5 ovarian
  TGI: 4.12 µM
SK-OV-3 ovarian
  TGI: 3.16 µM
CCRF-CEM leukemia
  TGI: 6.36 µM

— PubChem BioAssay (NCI)
